Reference: patent US5500217A, “Personal care formulations” (priority 1991, dated 1996)
Where a name gives a salt, the structure may show the parent alone.

Columns and labels:
Pseudomonas aeruginosa [1] = assay: Challenge test in shampoo, number of surviving (viable) bacteria; assay type: cell-based, Pseudomonas aeruginosa (ATCC 19429)
Description: (§1) Further aspects of the present invention are described in the following illustrative examples. Unless otherwise stated all refer to parts by weight. Also, personal care formulations in accordance with the present invention were subjected to evaluation of the antimicrobial properties of the composition. The anti-microbial evaluation was effected, under aseptic conditions throughout, in the following manner.
(§2) In the anti-microbial evaluation, the formulations were tested for anti-microbial activity against bacteria and/or fungi. The bacteria used were either Pseudomonas aeruginosa or Staphylococcusaureus. The fungus used was Candida albicans.
Aliquots (4 parts) of the above shampoo were then prepared with concentrations of the biocides indicated in Table 3 at 500 and 125 ppm of active ingredient.
The above samples were then challenged with a 0.2 parts by volume inoculum of a 24 hour culture of Pseudomonas aeruginosa (ATCC 19429) containing approximately 1×10^8 colony forming units (cfu's) per milliliter. The samples were then incubated in the dark at 25° C., 1 milliliter samples taken after 24 hours, 48 hours and 7 days and the number of surviving bacteria determined.
The procedure of Examples 4-14 were repeated using the 1:1 silver complex of N-methyl-N-hydroxythiobenzamide at four different concentrations.

Pseudomonas aeruginosa [2] = assay: Anti-microbial challenge test in protein-containing shampoo (MLC, two challenges); assay type: cell-based, Pseudomonas aeruginosa (ATCC 19429); conditions: viable count < 10^2 cells cm^-3; for MLC, Challenge 1, 48h / MLC, Challenge 1, 7d: first challenge; for MLC, Challenge 1, 7d / MLC, Challenge 2, 7d: 7 days
Description: as §1, §2
To aliquots (20 parts) of the shampoo formulation prepared as described were added various anti-microbial agents at concentrations of 125, 62.5, 31.25, 7.8 and 1.56 ppm of active ingredient, not all of the anti-microbial agents being used at all of these levels. The anti-microbial agents, and the levels used are as set out in Table One.
One sample of a mixture of the shampoo formulation and the anti-microbial agent was stored for one month (4 weeks) at 40° C. and a duplicate sample of the mixture was stored for one month at ambient temperature (about 20° C.).
The variants thus obtained were then challenged with a 0.2 parts by volume inoculum of a 24 hour culture of Pseudomonas aeruginosa (ATCC 19429) containing approximately 1×10^8 colony forming units (cfu's) per cm^3. The variants were than incubated in the dark at 25° C., and samples (one cm^3) were taken after 24 hours, 48 hours and 7 days. The number of surviving bacteria was determined by the decimal dilution method and the viable cells enumerated by incubation of the survivor detection plates at 30° C. for three days.
The results are shown in Table One in which the concentration of anti-microbial agent is the minimum required to reduce the count of viable cells to less than 10^2 cells cm^-3.
After removing the seven day sample, the samples of the shampoo formulation were challenged with a further 0.2 parts of a similar Pseudomonas aeruginosa culture and incubation at 25° C. was continued. Further one cm^3 samples were removed after 24 hours, 48 hours and 7 days and the number of surviving bacteria was determined in the same manner.

Staphylococcus aureus = assay: Anti-microbial challenge test in oil in water emulsion (base cream), Staphylococcus aureus; assay type: cell-based, Staphylococcus aureus (ATCC 6538); conditions: viable count < 10^2 cells cm^-3; for MLC, SA, 7d: 7 days
Description: as §1, §2
(§3) To aliquots (20 parts) of the emulsion were added various anti-microbial agents at concentrations of 500, 125, 31.25 and 7.8 ppm of active ingredients.
(§4) One sample of each mixture was inoculated with 0.2 parts by volume of a 24 hour culture of Staphylococcus aureus (ATCC 6538) containing 10^8 cells cm^-3. Duplicate samples of each mixture were inoculated with 0.2 parts by volume of a 48 hour culture of Candida albicans (ATCC 10231) containing 10^8 cells cm^-3.
(§5) The samples were then incubated and samples removed after 24 hours, 48 hours and 7 days as described in Examples 1 and 2 with the exception that the samples were not subjected to a further challenge after seven days.

Candida albicans = assay: Anti-microbial challenge test in oil in water emulsion (base cream), Candida albicans; assay type: cell-based, Candida albicans (ATCC 10231); conditions: viable count < 10^2 cells cm^-3; for MLC, CA, 7d: 7 days
Description: as §1, §2, §3, §4, §5

[3] = (S): shampoo stored one month at 40° C.
[4] = (S): shampoo stored one month at 40° C., second challenge
[5] = shampoo stored one month at ambient temperature
[6] = shampoo stored one month at ambient temperature, second challenge

Compound	Viable bacteria after 24 hr (Pseudomonas aeruginosa [1]; Table 3, 125 ppm)	Viable bacteria after 48 hr (Pseudomonas aeruginosa [1]; Table 3, 125 ppm)	Viable bacteria after 7 days (Pseudomonas aeruginosa [1]; Table 3, 125 ppm)	Viable bacteria after 24 hr (Pseudomonas aeruginosa [1]; Table 3, 500 ppm)	Viable bacteria after 48 hr (Pseudomonas aeruginosa [1]; Table 3, 500 ppm)	Viable bacteria after 7 days (Pseudomonas aeruginosa [1]; Table 3, 500 ppm)	further results
Cc1csc(=S)n1[O-].Cc1csc(=S)n1[O-].Cc1csc(=S)n1[O-].[In+3] [Example 11]	9.1 E2	< 10	< 10	< 10	< 10	< 10	
Cc1csc(=S)n1[O-].Cc1csc(=S)n1[O-].[Co+2] [Example 13]	2.1 E3	< 10	< 10	5.2 E2	< 10	< 10	
Cc1csc(=S)n1[O-].Cc1csc(=S)n1[O-].[Mn+2] [Example 7]	2.4 E4	> 3.0 E4	> 3.0 E4	3.5 E4	> 3.0 E4	> 3.0 E4	
Cc1csc(=S)n1O [Example 4, 3hydroxy-4-methylthiazol-2(3H)-thione]	1.7 E4	> 3.0 E4	> 3.0 E4	1.2 E4	> 3.0 E4	> 3.0 E4	
CN(O)C(=S)c1ccccc1.[Ag] [Example 15, 1:1 silver complex of N-methyl-N-hydroxythiobenzamide]							Viable bacteria after 24 hrs (Pseudomonas aeruginosa [1]; Table 4, 7.13 ppm): < 10; Viable bacteria after 48 hrs (Pseudomonas aeruginosa [1]; Table 4, 7.13 ppm): < 10; Viable bacteria after 7 days (Pseudomonas aeruginosa [1]; Table 4, 7.13 ppm): < 10; Viable bacteria after 24 hrs (Pseudomonas aeruginosa [1]; Table 4, 31.25 ppm): < 10; Viable bacteria after 48 hrs (Pseudomonas aeruginosa [1]; Table 4, 31.25 ppm): < 10; Viable bacteria after 7 days (Pseudomonas aeruginosa [1]; Table 4, 31.25 ppm): < 10; Viable bacteria after 24 hrs (Pseudomonas aeruginosa [1]; Table 4, 125 ppm): < 10; Viable bacteria after 48 hrs (Pseudomonas aeruginosa [1]; Table 4, 125 ppm): < 10; Viable bacteria after 7 days (Pseudomonas aeruginosa [1]; Table 4, 125 ppm): < 10; Viable bacteria after 24 hrs (Pseudomonas aeruginosa [1]; Table 4, 500 ppm): < 10; Viable bacteria after 48 hrs (Pseudomonas aeruginosa [1]; Table 4, 500 ppm): < 10; Viable bacteria after 7 days (Pseudomonas aeruginosa [1]; Table 4, 500 ppm): < 10
Cc1csc(=S)n1[O-].Cc1csc(=S)n1[O-].Cc1csc(=S)n1[O-].[Y+3] [Example 6]	4.5 E4	> 1.0 E4	< 3.0 E4	1.4 E4	> 3.0 E4	< 3.0 E4	
Cc1csc(=S)n1[O-].Cc1csc(=S)n1[O-].Cc1csc(=S)n1[O-].[Co+3] [Example 8]	2.1 E3	< 10	< 10	1.2 E3	< 10	< 10	
Cc1csc(=S)n1O.Cc1csc(=S)n1O.[Zn] [ZTA, 2:1 complex of 3hydroxy-4-methyl-thiazol-2(3H) thione and zinc]	6.2 E3	< 10	< 10	7.6 E3	< 10	< 10	MLC, Challenge 1, 48h (Pseudomonas aeruginosa [2]; [3]): 62.5 ppm w/v; MLC, Challenge 1, 7d (Pseudomonas aeruginosa [2]; [3]): 62.5 ppm w/v; MLC, Challenge 2, 48h (Pseudomonas aeruginosa [2]; [4]): 62.5 ppm w/v; MLC, Challenge 2, 7d (Pseudomonas aeruginosa [2]; [4]): 62.5 ppm w/v; MLC, Challenge 1, 48h (Pseudomonas aeruginosa [2]; [5]): 7.8 ppm w/v; MLC, Challenge 1, 7d (Pseudomonas aeruginosa [2]; [5]): 7.8 ppm w/v; MLC, Challenge 2, 24h (Pseudomonas aeruginosa [2]; shampoo stored one month at ambient temperature, second challenge, 24 h): 31.25 ppm w/v; MLC, Challenge 2, 48h (Pseudomonas aeruginosa [2]; [6]): 31.25 ppm w/v; MLC, Challenge 2, 7d (Pseudomonas aeruginosa [2]; [6]): 31.25 ppm w/v; MLC, SA, 24h (Staphylococcus aureus): 500 ppm w/v; MLC, SA, 48h (Staphylococcus aureus): 31.25 ppm w/v; MLC, SA, 7d (Staphylococcus aureus): 7.8 ppm w/v; MLC, CA, 24h (Candida albicans): 31.25 ppm w/v; MLC, CA, 48h (Candida albicans): 31.25 ppm w/v; MLC, CA, 7d (Candida albicans): 31.25 ppm w/v
On1ccccc1=S [SP, sodium salt of 1hydroxy-2-pyridinethione]							MLC, SA, 24h (Staphylococcus aureus): > 500 ppm w/v; MLC, SA, 48h (Staphylococcus aureus): 500 ppm w/v; MLC, SA, 7d (Staphylococcus aureus): 125 ppm w/v; MLC, CA, 24h (Candida albicans): 500 ppm w/v; MLC, CA, 48h (Candida albicans): 500 ppm w/v; MLC, CA, 7d (Candida albicans): 31.25 ppm w/v
[O-]n1ccccc1=S.[O-]n1ccccc1=S.[Zn+2] [ZP, 1:2 complex of zinc with 1hydroxy-2-pyridinethione]							MLC, SA, 24h (Staphylococcus aureus): > 500 ppm w/v; MLC, SA, 48h (Staphylococcus aureus): > 500 ppm w/v; MLC, SA, 7d (Staphylococcus aureus): 500 ppm w/v; MLC, CA, 24h (Candida albicans): 500 ppm w/v; MLC, CA, 48h (Candida albicans): 500 ppm w/v; MLC, CA, 7d (Candida albicans): 31.25 ppm w/v
Cc1csc(=S)n1[O-].Cc1csc(=S)n1[O-].[O]=[V+2] [Example 12]	1.5 E4	> 3.0 E4	8.3 E5	1.3 E3	< 10	< 10	
Cc1csc(=S)n1[O-].Cc1csc(=S)n1[O-].Cc1csc(=S)n1[O-].[Sc+3] [Example 9]	2.6 E3	8.0	< 10	2.0 E3	1.7 E2	< 10	
Cc1csc(=S)n1[O-].Cc1csc(=S)n1[O-].[Zn+2] [Example 14]	3.3 E3	< 10	< 10	4.4 E3	< 10	< 10	
